In patent US12491220B2, “Compositions containing indole-derived metabolites and methods of use thereof” (Imvela Corp., priority 2024, dated 2025):

What was measured:
[1] = molecular target: T1, AhR (Canis lupus familiaris, UniProt A0A8I3RSX6); test: AhR activation in canine cell line expressing AhR, in vitro luminescence (Example 1); type: cell-based; settings: 200 PM, FIG. 5, normalized to methylcholanthrene
T1 sequence (A0A8I3RSX6 1-853): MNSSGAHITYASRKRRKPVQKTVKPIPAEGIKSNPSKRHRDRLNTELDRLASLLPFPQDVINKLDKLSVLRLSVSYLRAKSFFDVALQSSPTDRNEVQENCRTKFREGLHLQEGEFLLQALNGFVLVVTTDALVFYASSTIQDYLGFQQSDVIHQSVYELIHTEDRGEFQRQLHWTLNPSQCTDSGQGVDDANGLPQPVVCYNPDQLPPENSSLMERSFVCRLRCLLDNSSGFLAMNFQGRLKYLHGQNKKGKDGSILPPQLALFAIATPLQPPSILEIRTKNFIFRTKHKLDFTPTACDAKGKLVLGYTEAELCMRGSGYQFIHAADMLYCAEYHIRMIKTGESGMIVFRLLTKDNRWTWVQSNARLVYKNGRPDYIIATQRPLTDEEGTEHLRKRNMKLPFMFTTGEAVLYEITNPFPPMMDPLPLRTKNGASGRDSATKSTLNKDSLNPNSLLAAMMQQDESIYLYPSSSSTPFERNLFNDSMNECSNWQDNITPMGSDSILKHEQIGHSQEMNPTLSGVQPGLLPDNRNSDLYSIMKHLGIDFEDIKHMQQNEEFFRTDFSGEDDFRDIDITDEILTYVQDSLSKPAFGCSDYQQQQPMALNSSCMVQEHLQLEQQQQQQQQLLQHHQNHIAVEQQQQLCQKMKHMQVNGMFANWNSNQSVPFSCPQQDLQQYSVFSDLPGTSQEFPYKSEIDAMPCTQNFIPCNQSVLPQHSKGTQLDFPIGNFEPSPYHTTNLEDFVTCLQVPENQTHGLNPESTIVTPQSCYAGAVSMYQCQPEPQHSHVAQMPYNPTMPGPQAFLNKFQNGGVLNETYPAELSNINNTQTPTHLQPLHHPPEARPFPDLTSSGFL
Procedure: (§1) The utility of ILA and IAld in multiple host was validated by an in vitro assay. Human or canine cell lines expressing AhR were exposed to ILA or IAld at […], and AhR activation was assayed using in vitro luminescence.

[2] = molecular target: T2, AhR (Homo sapiens, UniProt P35869); test: AhR activation in human cell line expressing AhR, in vitro luminescence (Example 1); type: cell-based; settings: 200 PM, FIG. 5, normalized to methylcholanthrene
T2 sequence (P35869 11-848): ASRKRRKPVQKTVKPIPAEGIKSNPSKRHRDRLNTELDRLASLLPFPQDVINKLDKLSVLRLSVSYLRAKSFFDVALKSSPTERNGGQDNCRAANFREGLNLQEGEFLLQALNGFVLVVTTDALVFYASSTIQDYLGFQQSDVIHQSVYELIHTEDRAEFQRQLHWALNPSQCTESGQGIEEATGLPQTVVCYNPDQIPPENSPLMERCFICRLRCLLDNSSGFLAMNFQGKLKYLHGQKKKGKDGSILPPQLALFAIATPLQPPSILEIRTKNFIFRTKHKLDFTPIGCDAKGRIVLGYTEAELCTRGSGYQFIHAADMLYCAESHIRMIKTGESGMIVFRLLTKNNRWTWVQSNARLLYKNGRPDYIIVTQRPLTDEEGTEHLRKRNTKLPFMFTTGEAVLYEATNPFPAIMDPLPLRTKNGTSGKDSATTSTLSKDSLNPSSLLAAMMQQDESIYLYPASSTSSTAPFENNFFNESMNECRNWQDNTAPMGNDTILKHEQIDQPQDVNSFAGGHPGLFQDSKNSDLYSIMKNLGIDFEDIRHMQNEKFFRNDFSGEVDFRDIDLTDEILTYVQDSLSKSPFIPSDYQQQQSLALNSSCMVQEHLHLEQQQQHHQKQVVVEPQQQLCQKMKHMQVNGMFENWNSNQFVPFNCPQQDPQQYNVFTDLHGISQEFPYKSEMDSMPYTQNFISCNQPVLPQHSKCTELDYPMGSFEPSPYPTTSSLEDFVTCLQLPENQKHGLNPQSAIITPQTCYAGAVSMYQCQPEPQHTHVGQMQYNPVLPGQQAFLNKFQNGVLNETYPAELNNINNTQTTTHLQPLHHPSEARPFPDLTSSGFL
Procedure: as §1

| SMILES | AhR activation [1] | AhR activation [2] |
| --- | --- | --- |
| O=Cc1c[nH]c2ccccc12 [IAld, indole-3-carboxaldehyde] | AhR activation was observed | AhR activation was observed |
| O=C(O)C(O)Cc1c[nH]c2ccccc12 (stereo not shown) [ILA, indole-3-lactic acid] | AhR activation was observed | AhR activation was observed |
